Results as given in patent publication US9139609B2, “C-4″ position substituted macrolide derivative” (priority 2011, dated 2015).
≈ marks a conversion by molar mass, not a printed value.

What was measured:
[1] = tested on: Streptococcus pneumoniae ATCC49619; assay: In vitro antibacterial activity, microbroth dilution method (CLSI method), test bacterium B; format: cell-based; settings: for MIC: read-out: MIC (minimum inhibitory concentration), test bacterium B
Protocol: (§1) In vitro antibacterial activities of the compounds of the present invention against various test bacteria were measured according to the microbroth dilution method (CLSI method). Among them, the bacteria C, D and E are erythromycin resistant bacteria. The MIC values (minimum inhibitory concentration, μg/ml) for the test bacteria A and B are exemplified in Table 22.

[2] = tested on: Haemophilus infuenzae ATCC43095; assay: In vitro antibacterial activity, microbroth dilution method (CLSI method), test bacterium A; format: cell-based; settings: for MIC: read-out: MIC (minimum inhibitory concentration), test bacterium A
Protocol: as §1

Row | MIC [1] [µg/mL] | MIC [2] [µg/mL] | MIC (minimum inhibitory concentration), test bacterium B [1] [µg/mL] | MIC (minimum inhibitory concentration), test bacterium A [2] [µg/mL] | SMILES
1 | 0.03 (≈ 0.0286 µM) | 4 (≈ 3.81 µM) | – | – | CC[C@H]1OC(=O)[C@H](C)[C@@H](O[C@H]2C[C@@](C)(OC)[C@@](O)(CN(CC)CCN(CC)CC)[C@H](C)O2)[C@H](C)[C@@H](O[C@@H]2O[C@H](C)C[C@H](N(C)C)[C@H]2O)[C@@](C)(OC)C[C@@H](C)C(=O)[C@H](C)[C@H]2N(CCNS(C)(=O)=O)C(=O)O[C@]12C [Example413]
2 | – | – | 0.06 (≈ 0.0581 µM) | 4 (≈ 3.87 µM) | CC[C@H]1OC(=O)[C@H](C)[C@@H](O[C@H]2C[C@@](C)(OC)[C@@](O)(CN(C)CCN(C)C(C)(C)c3ccccc3OC)[C@H](C)O2)[C@H](C)[C@@H](O[C@@H]2O[C@H](C)C[C@H](N(C)C)[C@H]2O)[C@@]2(C)C[C@@H](C)C3(NCCN4C(=O)O[C@@]1(C)[C@H]4[C@H]3C)O2 [Example341]
3 | 0.06 (≈ 0.0573 µM) | 8 (≈ 7.65 µM) | – | – | CC[C@H]1OC(=O)[C@H](C)[C@@H](O[C@H]2C[C@@](C)(OC)[C@@](O)(CN(C)CCN(C)C(C)(C)c3ccccc3OC)[C@H](C)O2)[C@H](C)[C@@H](O[C@@H]2O[C@H](C)C[C@H](N(C)C)[C@H]2O)[C@@](C)(OC)C[C@@H](C)C2=NCCN3C(=O)O[C@@]1(C)[C@H]3[C@H]2C [Example338]
4 | 0.03 (≈ 0.0282 µM) | 4 (≈ 3.76 µM) | – | – | CC[C@H]1OC(=O)[C@H](C)[C@@H](O[C@H]2C[C@@](C)(OC)[C@@](O)(CN(C)CCN(CC)CC)[C@H](C)O2)[C@H](C)[C@@H](O[C@@H]2O[C@H](C)C[C@H](N(C)C)[C@H]2O)[C@@](C)(OC)C[C@@H](C)C(=O)[C@H](C)[C@H]2N(CCN3CCNS3(=O)=O)C(=O)O[C@]12C [Example440]
5 | 0.06 (≈ 0.0573 µM) | 4 (≈ 3.82 µM) | – | – | CC[C@H]1OC(=O)[C@H](C)[C@@H](O[C@H]2C[C@@](C)(OC)[C@@](O)(CN(C)CCN(CC)CC)[C@H](C)O2)[C@H](C)[C@@H](O[C@@H]2O[C@H](C)C[C@H](N(C)C)[C@H]2O)[C@@](C)(OC)C[C@@H](C)C(=O)[C@H](C)[C@H]2N(CC3CCS(=O)(=O)C3)C(=O)O[C@]12C (stereo partly drawn) [Example154]
6 | 0.06 (≈ 0.0571 µM) | 4 (≈ 3.81 µM) | – | – | CC[C@H]1OC(=O)[C@H](C)[C@@H](O[C@H]2C[C@@](C)(OC)[C@@](O)(CN(C)CCN(C)C(C)(C)c3ccccc3OC)[C@H](C)O2)[C@H](C)[C@@H](O[C@@H]2O[C@H](C)C[C@H](N(C)C)[C@H]2O)[C@@](C)(OC(N)=O)C[C@@H](C)C(=O)[C@H](C)[C@H]2NC(=O)O[C@@]21C [Example342]
7 | 0.03 (≈ 0.0274 µM) | 8 (≈ 7.32 µM) | – | – | CC[C@H]1OC(=O)[C@H](C)[C@@H](O[C@H]2C[C@@](C)(OC)[C@@](O)(CN(C)CCN(C)C)[C@H](C)O2)[C@H](C)[C@@H](O[C@@H]2O[C@H](C)C[C@H](N(C)C)[C@H]2O)[C@@](C)(OC)C[C@@H](C)C(=O)[C@H](C)[C@H]2C(SCCCn3cnc4c(N)ncnc43)C(=O)O[C@@]21C (stereo partly drawn) [Example364]
8 | 0.03 (≈ 0.0282 µM) | 4 (≈ 3.76 µM) | – | – | CC[C@H]1OC(=O)[C@H](C)[C@@H](O[C@H]2C[C@@](C)(OC)[C@@](O)(CN(C)CCN(C(C)C)C(C)C)[C@H](C)O2)[C@H](C)[C@@H](O[C@@H]2O[C@H](C)C[C@H](N(C)C)[C@H]2O)[C@@](C)(OC)C[C@@H](C)C(=O)[C@H](C)[C@H]2N(CCS(=O)(=O)NC)C(=O)O[C@]12C [Example451]

Row | SMILES | MIC [1] [µg/mL] | MIC [2] [µg/mL] | MIC (minimum inhibitory concentration), test bacterium B [1] [µg/mL] | MIC (minimum inhibitory concentration), test bacterium A [2] [µg/mL]
9 | CC[C@H]1OC(=O)[C@H](C)[C@@H](O[C@H]2C[C@@](C)(OC)[C@@](O)(CN(C)CCN3C4CCC3CC4)[C@H](C)O2)[C@H](C)[C@@H](O[C@@H]2O[C@H](C)C[C@H](N(C)C)[C@H]2O)[C@@](C)(OC)C[C@@H](C)C(=O)[C@H](C)[C@H]2N(CCNS(C)(=O)=O)C(=O)O[C@]12C [Example446] | 0.03 (≈ 0.0283 µM) | 4 (≈ 3.77 µM) | – | –
